Measured values from patent US6653305B2, “Bicyclic heterocycles, pharmaceutical compositions containing them, their use, and processes for preparing them” (Boehringer Ingelheim Pharma KG, priority 2000, dated 2003).

system: not given; assay: not given; details: not given

Row | Compound | melting point
1 | C[C@@H]1CN(CC=CC(=O)Nc2cc3c(Nc4ccc(F)c(Cl)c4)ncnc3cc2O[C@@H]2CCOC2)CC(=O)O1 [Example 2(7), 4-[(3-chloro-4-fluorophenyl)amino]-6-{[4-((R)-6-methyl-2-oxomorpholin-4-yl)-1-oxo-2-buten-1-yl]amino}-7-[(R)-(tetrahydrofuran-3-yl)oxy]quinazoline] | 230 °C
2 | C[C@@H]1CN(CC=CC(=O)Nc2cc3c(Nc4ccc(F)c(Cl)c4)ncnc3cc2OCC2CCOCC2)CC(=O)O1 [Example 2(19), 4-[(3-chloro-4-fluorophenyl)amino]-6-{[4-((R)-6-methyl-2-oxomorpholin-4-yl)-1-oxo-2-buten-1-yl]amino}-7-[(tetrahydropyran-4-yl)methoxy]quinazoline] | 196 °C
3 | C[C@H]1CN(CC=CC(=O)Nc2cc3c(Nc4ccc(F)c(Cl)c4)ncnc3cc2OCC2CCOCC2)CC(=O)O1 [Example 2(21), 4-[(3-chloro-4-fluorophenyl)amino]-6-{[4-((S)-6-methyl-2-oxomorpholin-4-yl)-1-oxo-2-buten-1-yl]amino}-7-[(tetrahydropyran-4-yl)methoxy]quinazoline] | 196 to 199 °C

Continued, values first:

Row | melting point | Compound
4 | 121 °C | CN(CC=CC(=O)Nc1cc2c(Nc3ccc(F)c(Cl)c3)ncnc2cc1OCC1CC1)CC1OCCO1 [1(2), 4-[(3-chloro-4-fluorophenyl)amino]-6-[(4-{N-[(1,3-dioxolan-2-yl)methyl]-N-methylamino}-1-oxo-2-buten-1-yl)amino]-7-cyclopropylmethoxyquinazoline]
5 | 182 °C | C[C@H]1C(=O)OCCN1CC=CC(=O)Nc1cc2c(Nc3ccc(F)c(Cl)c3)ncnc2cc1OCC1CC1 [Example 2(2), 4-[(3-chloro-4-fluorophenyl)amino]-6-{[4-((S)-3-methyl-2-oxomorpholin-4-yl)-1-oxo-2-buten-1-yl]amino}-7-cyclopropylmethoxyquinazoline]

target: T1, human EGF-R (Homo sapiens, UniProt P00533); assay: Inhibition of EGF-dependent proliferation of F/L-HERc cells (Cell Titer 96 assay); type: cell-based; details: F/L-HERc cells (murine IL-3-dependent line expressing human EGF-R), stimulated with EGF 20 ng/ml, 48 hours at 37° C.
T1 construct: expressed in transfected cells; host or cells: F/L-HERc cells (murine IL-3-dependent FDC-P1 line transduced with LXSN retroviral vector carrying human EGF-R cDNA; packaging line GP+E86)
Description: A cell line of murine origin dependent on interleukin-3-(IL-3) which was genetically modified to express functional human EGF-R was used here. The proliferation of these cells known as F/L-HERc can therefore be stimulated either by murine IL-3 or by EGF (cf. T. von Rüden et al. in EMBO J. 7, 2749-2756 (1988) and J. H. Pierce et al. in Science 239, 628-631 (1988)).
The starting material used for the F/L-HERc cells was the cell line FDC-P1, the production of which has been described by T. M. Dexter et al. in J. Exp. Med. 152, 1036-1047 (1980). Alternatively, however, other growth-factor-dependent cells may also be used (cf., for example, J. H. Pierce et al. in Science 239, 628-631 (1988), H. Shibuya et al. in Cell 70, 57-67 (1992) and W. S. Alexander et al. in EMBO J. 10, 3683-3691 (1991)). For expressing the human EGF-R cDNA (cf. A. Ullrich et al. in Nature 309, 418-425 (1984)) recombinant retroviruses were used as described by T. von Rüden et al., EMBO J. 7, 2749-2756 (1988), except that the retroviral vector LXSN (cf. A. D. Miller et al. in BioTechniques 7, 980-990 (1989)) was used for the expression of the EGF-R cDNA and the line GP+E86 (cf. D. Markowitz et al. in J. Virol. 62, 1120-1124 (1988)) was used as the packaging cell.
The test was performed as follows:
F/L-HERc cells were cultivated in RPMI/1640 medium (Bio Whittaker), supplemented with 10% fetal calf serum (FCS, Boehringer Mannheim), 2 mM glutamine (Bio Whittaker), standard antibiotics and 20 ng/ml of human EGF (Promega), at 37° C. and 5% CO2. In order to investigate the inhibitory activity of the compounds according to the invention, 1.5×10^4 cells per well were cultivated in triplicate in 96-well dishes in the above medium (200 μl), the cell proliferation being stimulated with either EGF (20 ng/ml) or murine IL-3. […]
In order to determine the inhibitory activity of the compounds according to the invention the relative cell number was measured in O.D. units using the Cell Titer 96™ Aqueous Non-Radioactive Cell Proliferation Assay (Promega). […]

T1 sequence (P00533 25-1210): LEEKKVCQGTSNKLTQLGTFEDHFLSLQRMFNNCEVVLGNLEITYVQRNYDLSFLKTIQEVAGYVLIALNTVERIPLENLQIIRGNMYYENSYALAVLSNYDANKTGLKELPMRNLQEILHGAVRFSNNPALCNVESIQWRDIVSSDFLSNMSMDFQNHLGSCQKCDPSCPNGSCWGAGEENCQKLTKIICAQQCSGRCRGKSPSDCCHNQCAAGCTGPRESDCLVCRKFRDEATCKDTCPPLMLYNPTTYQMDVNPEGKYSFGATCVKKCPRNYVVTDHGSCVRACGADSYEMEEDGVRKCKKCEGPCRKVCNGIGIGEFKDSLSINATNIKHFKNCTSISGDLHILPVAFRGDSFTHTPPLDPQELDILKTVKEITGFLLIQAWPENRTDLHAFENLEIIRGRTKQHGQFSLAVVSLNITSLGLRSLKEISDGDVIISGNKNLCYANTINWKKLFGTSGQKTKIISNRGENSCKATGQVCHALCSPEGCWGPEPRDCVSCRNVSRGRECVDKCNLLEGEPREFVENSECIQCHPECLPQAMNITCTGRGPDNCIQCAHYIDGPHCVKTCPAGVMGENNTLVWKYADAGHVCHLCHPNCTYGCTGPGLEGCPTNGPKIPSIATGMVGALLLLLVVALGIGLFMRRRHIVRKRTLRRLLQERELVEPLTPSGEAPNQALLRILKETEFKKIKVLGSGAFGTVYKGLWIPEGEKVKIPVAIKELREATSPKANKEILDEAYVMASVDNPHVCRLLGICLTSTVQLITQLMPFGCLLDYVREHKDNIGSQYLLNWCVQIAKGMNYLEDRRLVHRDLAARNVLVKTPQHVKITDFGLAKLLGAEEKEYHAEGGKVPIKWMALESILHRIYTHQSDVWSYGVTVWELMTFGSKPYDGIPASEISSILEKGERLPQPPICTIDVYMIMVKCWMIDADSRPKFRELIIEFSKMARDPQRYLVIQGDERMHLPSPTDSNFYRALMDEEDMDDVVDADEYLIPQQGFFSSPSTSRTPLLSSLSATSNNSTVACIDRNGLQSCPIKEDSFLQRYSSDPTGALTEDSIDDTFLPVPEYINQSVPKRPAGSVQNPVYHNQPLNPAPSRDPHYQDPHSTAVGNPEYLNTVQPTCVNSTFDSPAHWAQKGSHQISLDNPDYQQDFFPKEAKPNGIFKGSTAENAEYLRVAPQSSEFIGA

Row | IC50 | Compound
6 | 0.02 nM | CN(CC=CC(=O)Nc1cc2c(Nc3ccc(F)c(Cl)c3)ncnc2cc1OCC1CC1)CC1OCCO1 [1(2), 4-[(3-chloro-4-fluorophenyl)amino]-6-[(4-{N-[(1,3-dioxolan-2-yl)methyl]-N-methylamino}-1-oxo-2-buten-1-yl)amino]-7-cyclopropylmethoxyquinazoline]
7 | 9 nM | C[C@@H]1CN(CC=CC(=O)Nc2cc3c(Nc4ccc(F)c(Cl)c4)ncnc3cc2OCC2CC2)CC(=O)O1 [2(1), 4-[(3-chloro-4-fluorophenyl)amino]-6-{[4-((R)-6-methyl-2-oxomorpholin-4-yl)-1-oxo-2-buten-1-yl]amino}-7-cyclopropylmethoxyquinazoline]
8 | 15 nM | C[C@H]1CN(CC=CC(=O)Nc2cc3c(Nc4ccc(F)c(Cl)c4)ncnc3cc2OCC2CC2)CC(=O)O1 [Example 2, 4-[(3-chloro-4-fluorophenyl)amino]-6-{[4-((S)-6-methyl-2-oxomorpholin-4-yl)-1-oxo-2-buten-1-yl]amino}-7-cyclopropylmethoxyguinazoline]
